Measured values from US20240150293A1, “SPIROCYCLOHEXANE DERIVATIVES, PHARMACEUTICAL COMPOSITIONS CONTAINING THEM AND THEIR USES AS ANTI-APOPTOTIC INHIBITORS” (LES LABORATOIRES SERVIER, priority 2021, published 2024).
Read-outs that look alike come from different tables or passages of the source.

What was measured:
[1] = biological target: Cy5-labelled Mcl1 (amino acids 171-321) C286S protein (UniProtKB Q07820) (Homo sapiens (Human), UniProt Q07820, C286S); experiment: Inhibition of Mcl-1 by the fluorescence quenching assay (Example A, Method B); assay type: binding
How it was run: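 Eleven-point compound series incubated 2 h at room temperature with 1 nM Cy5-tagged protein and quencher-labelled PUMA peptide at 10, 20 or 400 nM in HEPES/NaCl/Tween 20, pH 7.4, 5% DMSO. IC50 for 50% fluorescence increase by 4-parameter fit, then Ki derived (complete cKi or estimated eKi).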

NCI-H929 cell lines = experiment: In vitro cytotoxicity, CellTiter-Glo (CTG) assay (Example B, Method B); assay type: cell-based; settings: NCI-H929 cells, 48 h incubation, read-out: C50
How it was run: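 ATP-based luminescence (CellTiter-Glo) after 48 h incubation at 37° C., 5% CO2 gave NCI-H929 viability. Eleven concentrations tested, highest final 30 μM, dispensed acoustically from 10 mM DMSO stocks; C50 defined as concentration reaching 50% viability.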

Sequence of Cy5-labelled Mcl1 (amino acids 171-321) C286S protein (Q07820 171-321 C286S): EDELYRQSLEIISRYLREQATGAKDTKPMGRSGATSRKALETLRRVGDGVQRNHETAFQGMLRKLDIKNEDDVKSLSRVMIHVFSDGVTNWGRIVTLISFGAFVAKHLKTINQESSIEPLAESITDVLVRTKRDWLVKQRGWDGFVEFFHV

SMILES	Ki [1] [nM]	IC50 (NCI-H929 cell lines; Homo sapiens, NCI-H929, 48 h) [nM]	IC50 (NCI-H929 cell lines) [nM]	Ki ([1]; Ki determined from IC50) [nM]
C[C@@H](COc1ccnc2c1[C@H](C)CCC2)C[C@@H]1Cc2ccc(-c3ccc[nH]3)cc2[C@]12CC[C@@](Nc1cccc(Cl)c1)(C(=O)O)CC2 [Example 880, (1r,2′R,4R)-4-(3-chloroanilino)-2′-[(2R)-2-methyl-3-{[(5R)-5-methyl-5,6,7,8-tetrahydroquinolin-4-yl]oxy}propyl]-6′-(1H-pyrrol-2-yl)-2′,3′-dihydrospiro[cyclohexane-1,1′-indene]-4-carboxylic acid]	1.23	829	–	–
CC(O)c1ccc2c(c1)[C@]1(CC[C@@](Nc3cccc(Cl)c3)(C(=O)O)CC1)[C@@H](C[C@@H](C)COc1ccnc3c1[C@H](C)CCC3)C2 (single isomer, unassigned) [Example 859]	0.0375	–	43.7	–
C[C@@H](COc1ccnc2c1[C@H](C)CC[C@H]2C)C[C@H]1Cc2cc3c(cc2[C@]12CC[C@@](Nc1cccc(Cl)c1)(C(=O)O)CC2)OCCO3 [Example 963, (1r,4S,7′S)-4-(3-chloroanilino)-7′-[(2R)-3-{[(5R,8R)-5,8-dimethyl-5,6,7,8-tetrahydroquinolin-4-yl]oxy}-2-methylpropyl]-2′,3′,7′,8′-tetrahydrospiro[cyclohexane-1,6′-indeno[5,6-b][1,4]dioxine]-4-carboxylic acid]	0.0235	97.3	–	–
C[C@@H](COc1ccnc2c1[C@H](C)CCC2)C[C@H]1Cc2cc3c(cc2[C@]12CC[C@@](Nc1cccc(Cl)c1)(C(=O)OCC(=O)N(C)C)CC2)OCO3 [Example 936, 2-(dimethylamino)-2-oxoethyl (1r,4S,6′S)-4-(3-chloroanilino)-6′-[(2R)-2-methyl-3-{[(5R)-5-methyl-5,6,7,8-tetrahydroquinolin-4-yl]oxy}propyl]-6′,7′-dihydro-2′H-spiro[cyclohexane-1,5′-indeno[5,6-d][1,3]dioxole]-4-carboxylate]	142	6840	–	–
C[C@@H](COc1ccnc2c1[C@H](C)CCC2)C[C@H]1Cc2cc3c(cc2[C@]12CC[C@@](Nc1cccc(Cl)c1)(C(=O)O)CC2)OC[C@H](C)O3 [Example 971, (1r,2′S,4S,7′S)-4-(3-chloroanilino)-2′-methyl-7′-[(2R)-2-methyl-3-{[(5R)-5-methyl-5,6,7,8-tetrahydroquinolin-4-yl]oxy}propyl]-2′,3′,7′,8′-tetrahydrospiro[cyclohexane-1,6′-indeno[5,6-b][1,4]dioxine]-4-carboxylic acid]	0.0143	41	–	–
CCCC1COc2cc3c(cc2OC1)[C@]1(CC[C@@](Nc2cccc(Cl)c2)(C(=O)O)CC1)[C@@H](C[C@@H](C)COc1ccnc2c1[C@H](C)CCC2)C3 (single isomer, unassigned) [Example 990]	0.0575	–	353	–
C[C@@H](COc1ccnc2c1[C@H](C)CCC2)C[C@H]1Cc2ccc(OCC3CC3)cc2[C@]12CC[C@@](Nc1cccc(Cl)c1)(C(=O)O)CC2 [Example 791, (1r,2′S,4S)-4-(3-chloroanilino)-6′-(cyclopropylmethoxy)-2′-[(2R)-2-methyl-3-{[(5R)-5-methyl-5,6,7,8-tetrahydroquinolin-4-yl]oxy}propyl]-2′,3′-dihydrospiro[cyclohexane-1,1′-indene]-4-carboxylic acid]	0.124	192	–	–
CC1CCNc2nccc(OC[C@H](C)C[C@H]3Cc4ccccc4[C@]34CC[C@@](Nc3cccc(Cl)c3)(C(=O)O)CC4)c21 (single isomer, unassigned) [Example 641]	14	–	3030	–
C[C@@H](COc1ccnc2c1[C@H](C)CCC2)CC1Cc2c(Cl)c(Cl)ccc2[C@]12CC[C@@](Nc1cccc(Cl)c1)(C(=O)O)CC2 (single isomer, unassigned) [Example 751]	0.644	279	–	–
C[C@@H](COc1ccnc2c1[C@H](C)CCC2)C[C@H]1Cc2cc3c(cc2[C@]12CC[C@@](Nc1cccc(Cl)c1)(C(=O)O)CC2)O[C@H](C)CO3 [Example 973, (1r,3′R,4S,7′S)-4-(3-chloroanilino)-3′-methyl-7′-[(2R)-2-methyl-3-{[(5R)-5-methyl-5,6,7,8-tetrahydroquinolin-4-yl]oxy}propyl]-2′,3′,7′,8′-tetrahydrospiro[cyclohexane-1,6′-indeno[5,6-b][1,4]dioxine]-4-carboxylic acid]	0.0118	34.3	–	–
CC(=O)c1cc(C)c2c(c1)[C@]1(CC[C@@](Nc3cccc(Cl)c3)(C(=O)O)CC1)C(C[C@@H](C)COc1ccnc3c1[C@H](C)CCC3)C2 (single isomer, unassigned) [Example 758]	1.19	–	97.2	–
CC(=O)c1cc(C)c2c(c1)[C@]1(CC[C@@](Nc3cccc(Cl)c3)(C(=O)O)CC1)C(C[C@@H](C)COc1ccnc3c1[C@H](C)CCC3)C2 (single isomer, unassigned) [Example 757]	1.9	–	200	–
CCOc1cc2c(cc1Cl)C[C@H](C[C@@H](C)COc1ccnc3c1[C@H](C)CCC3)[C@]21CC[C@](Nc2cccc(Cl)c2)(C(=O)O)CC1 [Example 816, (1r,2′S,4S)-5′-chloro-4-(3-chloroanilino)-6′-ethoxy-2′-[(2R)-2-methyl-3-{[(5R)-5-methyl-5,6,7,8-tetrahydroquinolin-4-yl]oxy}propyl]-2′,3′-dihydrospiro[cyclohexane-1,1′-indene]-4-carboxylic acid]	0.353	101	–	–
COc1cc2c(cc1Cl)CN(C[C@@H](C)COc1ccnc3c1[C@H](C)CCC3)[C@]21CC[C@](Nc2cccc(Cl)c2)(C(=O)O)CC1 [Example 46, (1s,4S)-5′-chloro-4-(3-chloroanilino)-6′-methoxy-2′-[(2R)-2-methyl-3-{[(5R)-5-methyl-5,6,7,8-tetrahydroquinolin-4-yl]oxy}propyl]-2′,3′-dihydrospiro[cyclohexane-1,1′-isoindole]-4-carboxylic acid]	–	262	–	0.255
C[C@@H](COc1ccnc2c1[C@H](C)CCC2)C[C@H]1Cc2cc3c(cc2[C@]12CC[C@@](Nc1cccc(Cl)c1)(C(=O)O)CC2)OCC(F)(F)CO3 [Example 996, (1r,4S,8′S)-4-(3-chloroanilino)-3′,3′-difluoro-8′-[(2R)-2-methyl-3-{[(5R)-5-methyl-5,6,7,8-tetrahydroquinolin-4-yl]oxy}propyl]-3′,4′,8′,9′-tetrahydro-2′H-spiro[cyclohexane-1,7′-indeno[5,6-b][1,4]dioxepine]-4-carboxylic acid]	0.028	84.5	–	–
C[C@@H](COc1ccnc2c1[C@H](C)CCC2)CC1=Cc2c(Cl)c(Cl)ccc2[C@]12CC[C@@](Nc1cccc(Cl)c1)(C(=O)O)CC2 [Example 750, (1r,4R)-4′,5′-dichloro-4-(3-chloroanilino)-2′-[(2R)-2-methyl-3-{[(5R)-5-methyl-5,6,7,8-tetrahydroquinolin-4-yl]oxy}propyl]spiro[cyclohexane-1,1′-indene]-4-carboxylic acid]	1.06	378	–	–
C[C@@H](COc1ccnc2c1[C@H](C)CCC2)CN1Cc2cc3c(cc2[C@]12CC[C@](Nc1ccc(F)c(Cl)c1)(C(=O)O)CC2)OCO3 [Example 48, (1r,4R)-4-(3-chloro-4-fluoroanilino)-6′-[(2R)-2-methyl-3-{[(5R)-5-methyl-5,6,7,8-tetrahydroquinolin-4-yl]oxy}propyl]-6′,7′-dihydro-2′H-spiro[cyclohexane-1,5′-[1,3]dioxolo[4,5-f]isoindole]-4-carboxylic acid]	–	21500	–	104
Cc1ccc2c(c1)CN(C[C@@H](C)COc1ccnc3c1[C@H](C)CCC3)[C@]21CC[C@](Nc2cccc(Cl)c2)(C(=O)O)CC1 [Example 55, (1s,4S)-4-(3-chloroanilino)-5′-methyl-2′-[(2R)-2-methyl-3-{[(5R)-5-methyl-5,6,7,8-tetrahydroquinolin-4-yl]oxy}propyl]-2′,3′-dihydrospiro[cyclohexane-1,1′-isoindole]-4-carboxylic acid]	–	181	–	0.104
CC(O)c1ccc2c(c1)[C@]1(CC[C@@](Nc3cccc(Cl)c3)(C(=O)O)CC1)[C@@H](C[C@@H](C)COc1ccnc3c1[C@H](C)CCC3)C2 (single isomer, unassigned) [Example 860]	0.0188	–	93	–
CCOc1cc2c(cc1F)C[C@H](C[C@@H](C)COc1ccnc3c1[C@H](C)CCC3)[C@]21CC[C@](Nc2cccc(Cl)c2)(C(=O)O)CC1 [Example 818, (1r,2′S,4S)-4-(3-chloroanilino)-6′-ethoxy-5′-fluoro-2′-[(2R)-2-methyl-3-{[(5R)-5-methyl-5,6,7,8-tetrahydroquinolin-4-yl]oxy}propyl]-2′,3′-dihydrospiro[cyclohexane-1,1′-indene]-4-carboxylic acid]	0.0783	106	–	–
C[C@@H](COc1ccnc2c1[C@H](C)CC[C@H]2O)C[C@H]1Cc2cc3c(cc2[C@]12CC[C@@](Nc1cccc(Cl)c1)(C(=O)O)CC2)OCO3 [Example 959, (1r,4S,6′S)-4-(3-chloroanilino)-6′-[(2R)-3-{[(5R,8R)-8-hydroxy-5-methyl-5,6,7,8-tetrahydroquinolin-4-yl]oxy}-2-methylpropyl]-6′,7′-dihydro-2′H-spiro[cyclohexane-1,5′-indeno[5,6-d][1,3]dioxole]-4-carboxylic acid]	0.0117	28.7	–	–
